8 compounds from BindingDB's records for doi:10.1007/pl00005133 (Eli Lilly, 1998) can be followed below.

“And” between values parts separate entries of the source, which are not always exact repeats. Equal values may be shown once.

The target of this experiment is 5-hydroxytryptamine receptor 2B (Homo sapiens, UniProt P41595).
Chain of 5-hydroxytryptamine receptor 2B (P41595 whole entry): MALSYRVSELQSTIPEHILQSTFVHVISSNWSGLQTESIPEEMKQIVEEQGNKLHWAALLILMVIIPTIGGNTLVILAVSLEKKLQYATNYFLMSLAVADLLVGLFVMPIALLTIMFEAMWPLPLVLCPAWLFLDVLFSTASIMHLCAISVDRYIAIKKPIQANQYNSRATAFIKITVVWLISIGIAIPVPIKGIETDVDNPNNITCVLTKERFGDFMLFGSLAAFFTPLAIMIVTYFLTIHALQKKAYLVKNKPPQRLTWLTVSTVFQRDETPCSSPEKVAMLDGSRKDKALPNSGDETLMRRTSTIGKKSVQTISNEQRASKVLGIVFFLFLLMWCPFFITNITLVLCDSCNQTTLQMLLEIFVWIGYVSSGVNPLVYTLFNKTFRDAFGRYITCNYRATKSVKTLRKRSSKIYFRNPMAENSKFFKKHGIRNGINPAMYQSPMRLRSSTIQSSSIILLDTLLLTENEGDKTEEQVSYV
By Ki is commonly meant a dissociation constant, usually derived from enzyme kinetics or from competition with a known ligand. Low values mean higher affinity, high ones lower affinity. `Cc1nc2sccn2c(=O)c1CCN1CCC(=C(c2ccc(F)cc2)c2ccc(F)cc2)CC1`: the Ki was 1.64 nM and 0.4 nM.

In turn, `c1ccc2c(N3CCNCC3)cccc2c1` registered a Ki of 0.89 nM.

Consider `O=C1NCN(c2ccccc2)C12CCN(CC1COc3ccccc3O1)CC2` (stereo not drawn) [8-(2,3-Dihydro-benzo[1,4]dioxin-2-ylmethyl)-1-phenyl-1,3,8-triaza-spiro[4.5]decan-4-one], for which the Ki is 475 nM and 173 nM.

Consider `O=C(CCCN1CCC2(CC1)C(=O)NCN2c1ccccc1)c1ccc(F)cc1` [8-[4-(4-fluorophenyl)-4-oxidanylidene-butyl]-1-phenyl-1,3,8-triazaspiro[4.5]decan-4-one], for which the Ki was 592 nM and 317 nM.

As to `CC(O)C(C)OC(=O)C1CC2c3cccc4c3c(cn4C(C)C)CC2N(C)C1` (stereo not drawn) [CAS_60634-51-7], the Ki was 1.53 nM and 0.74 nM.

Take `CCN(CC)C(=O)[C@@H]1C=C2c3cccc4[nH]c(Br)c(c34)C[C@H]2N(C)C1` [LSD,2-Bromo]: the Ki was 8.09 nM and 7.47 nM.

Consider `CN1C[C@@H](NS(=O)(=O)N(C)C)C[C@@H]2c3cccc4c3c(cn4C)C[C@H]21` [MESULERGINE], for which the Ki was 3.3 nM and 1.92 nM.

As to `CN(C)CCC(c1ccc(Cl)cc1)c1ccccn1` (stereo not drawn) [clorfeniramina], the Ki is 6800 nM and 4170 nM.
